From US20140018303A1 come the findings set out here.

Like-named read-outs stand apart in the source and are kept apart here.

Data set [1] concerns the target T1, aminopeptidase N (L5006-25UN, Sigma) (Sus scrofa, UniProt P15145).
T1 sequence (P15145 1-963): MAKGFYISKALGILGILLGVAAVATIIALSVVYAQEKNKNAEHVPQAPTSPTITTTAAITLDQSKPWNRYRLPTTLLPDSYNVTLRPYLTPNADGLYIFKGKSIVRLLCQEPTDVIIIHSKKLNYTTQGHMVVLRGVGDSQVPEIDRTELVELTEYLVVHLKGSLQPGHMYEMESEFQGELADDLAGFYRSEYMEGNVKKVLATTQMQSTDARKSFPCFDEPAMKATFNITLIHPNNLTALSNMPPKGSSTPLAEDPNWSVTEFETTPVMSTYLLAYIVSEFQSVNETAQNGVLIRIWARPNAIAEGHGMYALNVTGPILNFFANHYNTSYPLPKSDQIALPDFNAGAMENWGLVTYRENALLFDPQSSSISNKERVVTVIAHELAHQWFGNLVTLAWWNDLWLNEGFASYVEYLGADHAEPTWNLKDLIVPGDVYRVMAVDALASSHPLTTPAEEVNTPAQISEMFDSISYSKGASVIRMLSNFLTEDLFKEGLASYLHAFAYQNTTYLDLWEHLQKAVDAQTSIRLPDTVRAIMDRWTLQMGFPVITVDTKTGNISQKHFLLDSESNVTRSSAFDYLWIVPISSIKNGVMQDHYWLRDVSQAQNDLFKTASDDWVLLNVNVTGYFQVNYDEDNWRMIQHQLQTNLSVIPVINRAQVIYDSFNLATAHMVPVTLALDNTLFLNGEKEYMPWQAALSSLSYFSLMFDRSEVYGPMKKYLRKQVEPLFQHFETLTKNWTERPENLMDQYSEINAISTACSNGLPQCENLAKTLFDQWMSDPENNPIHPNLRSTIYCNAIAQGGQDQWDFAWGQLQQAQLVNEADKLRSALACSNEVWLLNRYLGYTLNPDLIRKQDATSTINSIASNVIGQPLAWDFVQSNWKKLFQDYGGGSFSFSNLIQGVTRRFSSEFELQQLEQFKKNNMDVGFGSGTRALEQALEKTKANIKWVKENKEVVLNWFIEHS
Description: Biotechnol., 1995, 5(1):36-40” is followed to analyze the bioactivity of 3-amino-2-hydroxy-4-phenylbutanoyl-valyl-isoleucine, taking bestatin, a typical APN inhibitor used in leukemia treatment, as positive control.
The procedure for the assay is as follows: apply 100 μl (1 mg/ml in a 0.1M Tris-HCl, pH 7.0) of substrate (L-leucine-p-nitroanilide) to a 96-well plate, mix with 20 µl (0.1M Tris-HCl, pH 7.0) of the compound to be assayed of different concentration (0.86, 1.71, 2.57, 4.29, 8.57 μg/ml). Incubate at 37° C. for 3 min, followed by addition of 20 μl (2 mU, 0.1M Tris-HCl, pH 7.0) aminopeptidase N (L5006-25UN, Sigma), incubate at 37° C. for 30 min. Read the absorbance at 405 nm.
The inhibition rate is presented as:
Inhibition rate=(A−B)/A*100%
wherein: • A is the absorbance tested without inhibitor in the system. • B is the absorbance detected in the system containing different concentration of the compound. Use 0.1M Tris-HCl (pH 7.0) to normalize the buffer.

The nature of data set [2]: Solubility of the purified product in solvents. It is filed as physicochemical. The method, then:
The broth is harvested and placed at 4° C. overnight. Remove the precipitate by centrifugation at 4000 rpm, 4° C., for 30 min. The supernatant is subject to macroporous resin, which is selected from: XAD-1600, SP850, or JD-1, by either static or dynamic mode. The resin is then eluted with double volume of purified water, 10%, 30%, 50%, 75%, and 100% of ethanol. Collect the fraction of the 50% elute and concentrate it under reduced pressure at 40° C. Dilute the concentrate by 10 fold with 30% acetonitrile and centrifuge at 12000 rpm for 10 min. Load 15-25 ml of the supernatant to a column for preparative chromatography (Biotage Si 25+M 1603-2, USA) at room temperature. Elute the column with 30% acetonitrile at flow rate of 3-5 ml/min, and collect the fraction of 200-400 ml. The collected elute is then concentrate under reduced pressure at 40° C., and the concentrate is subject to preparative HPLC by DIONEXP680 system or Agilent 1100 DAD system. The fraction containing target compound is concentrated and dried under reduced pressure at 40° C., and a purified product is obtained. […]

Where [3] appears, read: read-out: Inhibition Rate against APN (IR).

`CC(C)C[C@H](NC(=O)[C@@H](O)[C@H](N)Cc1ccccc1)C(=O)O` [positive control, bestatin, reference compound]: in data set [1] (setting [3]), the inhibition at 0.86 µg/mL was determined as 41.6%, the inhibition at 1.71 µg/mL worked out at 44.4%, the inhibition at 2.57 µg/mL worked out at 47.1% and the inhibition at 4.29 µg/mL came out at 52.6%. Besides, the inhibition at 8.57 µg/mL in data set [1] (setting [3]) amounted to 66.5%.

Consider `CC[C@H](C)[C@H](NC(=O)[C@@H](NC(=O)C(O)C(N)Cc1ccccc1)C(C)C)C(=O)O` (stereo partly drawn) [the compound], for which the solubility entry in data set [2] (in chloroform) is “insoluble”; in data set [2] (in methanol, ethanol, water and acetonitrile), “soluble”. Moreover, the “Inhibition Rate against APN (IR)” value in data set [1] (concentration 0.86 μg/ml) came to 42.02%; in data set [1] (concentration 1.71 μg/ml), 51.40%; in data set [1] (concentration 2.57 μg/ml), 65.14%; in data set [1] (concentration 4.29 μg/ml), 70.79%; in data set [1] (concentration 8.57 μg/ml) it was 77.91%.

The term inhibition denotes the drop in the measured response relative to a control, in per cent.
